What was measured:
[1] = xn = mol fraction of the nth substance listed; conditions: 298.15 K; for surface tension liquid-gas: Drop volume; for mass density: 101.3 kPa, Liquid
[2] = refractive index (Na D-line) (dimensionless); xn = mol fraction of the nth substance listed; conditions: 298.15 K, 101.3 kPa, Liquid, Standard Abbe refractometry
[3] = 298.15 K; for surface tension liquid-gas: Drop volume; for mass density: 101.33 kPa, Liquid
[4] = refractive index (Na D-line) (dimensionless); conditions: 298.15 K; 101.33 kPa; Liquid; Standard Abbe refractometry

CCCCCCCC [octane] + CCCO
Conditions	refractive index, [2]	surface tension liquid-gas, [1] [mN/m]
x1 = 0.0237	1.3835	–
x1 = 0.123	1.3852	22.38
x1 = 0.1859	1.3862	22.05
x1 = 0.2349	1.3869	21.81
x1 = 0.29	1.3877	21.66
x1 = 0.3454	1.3884	21.53
x1 = 0.3547	1.3885	21.51
x1 = 0.4493	1.3896	21.36
x1 = 0.5154	1.3903	21.3
x1 = 0.5218	1.3904	21.29
x1 = 0.6224	1.3914	21.22
x1 = 0.6308	1.3915	21.21
x1 = 0.6938	1.3921	21.21
x1 = 0.7592	1.3927	21.17
x1 = 0.7884	1.393	21.17
x1 = 0.8449	1.3935	21.16
x1 = 0.8918	1.394	21.16
x1 = 0.9245	1.3943	21.16

CCCCCCCC [octane] + CCO
Conditions	mass density [kg/m3]	refractive index	surface tension liquid-gas [mN/m]
[1], x1 = 0.0131	781.56	–	–
[1], x1 = 0.0523	771.81	–	–
[1], x1 = 0.0686	–	–	21.37
[1], x1 = 0.0788	766.05	–	–
[1], x1 = 0.1132	–	–	21.2
[1], x1 = 0.1433	758.82	–	–
[1], x1 = 0.1721	–	–	21.06
[1], x1 = 0.1881	754.27	–	–
[1], x1 = 0.2228	747.52	–	–
[1], x1 = 0.2616	742.94	–	–
[1], x1 = 0.2867	–	–	20.88
[1], x1 = 0.3011	738.29	–	–
[1], x1 = 0.3571	–	–	20.82
[1], x1 = 0.3725	734.06	–	–
[1], x1 = 0.3985	727.44	–	–
[1], x1 = 0.4536	725.27	–	–
[1], x1 = 0.4544	–	–	20.77
[1], x1 = 0.4898	–	–	20.77
[1], x1 = 0.5175	721.13	–	–
[1], x1 = 0.5401	–	–	20.78
[1], x1 = 0.5832	716.94	–	–
[1], x1 = 0.5865	–	–	20.79
[1], x1 = 0.6299	–	–	20.8
[1], x1 = 0.6457	–	–	20.81
[1], x1 = 0.669	–	–	20.84
[1], x1 = 0.6709	713.14	–	–
[1], x1 = 0.7226	708.8	–	–
[1], x1 = 0.765	–	–	20.89
[1], x1 = 0.8041	–	–	20.92
[1], x1 = 0.8191	–	–	20.94
[1], x1 = 0.8201	706.53	–	–
[1], x1 = 0.8707	702.91	–	–
[1], x1 = 0.9095	–	–	21.01
[1], x1 = 0.9212	–	–	21.05
[2], x1 = 0.0686	–	1.3641	–
[2], x1 = 0.1132	–	1.367	–
[2], x1 = 0.1721	–	1.3705	–
[2], x1 = 0.1834	–	1.3711	–
[2], x1 = 0.2867	–	1.3762	–
[2], x1 = 0.35	–	1.3789	–
[2], x1 = 0.3571	–	1.3792	–
[2], x1 = 0.4544	–	1.3827	–
[2], x1 = 0.4898	–	1.3839	–
[2], x1 = 0.5401	–	1.3853	–
[2], x1 = 0.5865	–	1.3866	–
[2], x1 = 0.6299	–	1.3877	–
[2], x1 = 0.6457	–	1.388	–
[2], x1 = 0.669	–	1.3885	–
[2], x1 = 0.765	–	1.3906	–
[2], x1 = 0.8191	–	1.3917	–
[2], x1 = 0.9095	–	1.3934	–
[2], x1 = 0.9212	–	1.3939	–

CCCCCO [pentan-1-ol]
Conditions	mass density [kg/m3]	refractive index	surface tension liquid-gas [mN/m]
[3]	810.83	–	24.97
[4]	–	1.408	–

CCCCCO [pentan-1-ol] + CCCCCCCC
Conditions	refractive index, [2]	surface tension liquid-gas, [1] [mN/m]
x2 = 0.0189	1.4075	–
x2 = 0.115	1.4058	23.88
x2 = 0.1459	1.4052	23.6
x2 = 0.1629	1.4049	23.5
x2 = 0.2727	1.403	22.8
x2 = 0.3271	1.4022	22.54
x2 = 0.4586	1.4003	22.06
x2 = 0.4927	1.3999	21.96
x2 = 0.5188	1.3996	21.91
x2 = 0.5951	1.3986	21.75
x2 = 0.655	1.3979	21.65
x2 = 0.6713	1.3977	21.63
x2 = 0.7676	1.3968	21.5
x2 = 0.7932	1.3966	21.46
x2 = 0.834	1.3963	21.41
x2 = 0.8869	1.3958	21.35
x2 = 0.9457	1.3955	21.27

CCCO [propan-1-ol]
Conditions	mass density [kg/m3]	refractive index	surface tension liquid-gas [mN/m]
[3]	799.62	–	23.39
[4]	–	1.383	–
